Test results: paper PMC10408569, “Recruitment of hexahydroquinoline as anticancer scaffold targeting inhibition of wild and mutants EGFR (EGFR^WT, EGFR^T790M, and EGFR^L858R)” (Journal of Enzyme Inhibition and Medicinal Chemistry, 2023)

Assay: Cytotoxic effects in vitro on normal lung cells
Format: cell-based
Conditions: IMR-90 normal lung fibroblast cells; human normal lung fibroblast (IMR-90); read-out: IC50, cytotoxicity towards human normal cells IMR-90

**Q.** Which IC50 does the source give for `C#Cc1cccc(Nc2ncnc3cc(OCCOC)c(OCCOC)cc23)c1` [Erlotinib, erlotinib, reference compound] here?
**A.** 39.6 ± 1.15 µM
